Patent publication EP0063826A2, “2-Amino-benzoic-acid derivatives, their preparation and their use as medicines or intermediates” (Dr. Karl Thomae GmbH, priority 1980, dated 1981)

System: Mäusen
Assay: Acute oral toxicity in mice (orienting)
Format: in vivo
Details: 2 000 mg/kg by gavage, group of 10, observation 14 days
Method: Die akute Toxizität wurde orientierend an Gruppen von 10 Mäusen (5 weibliche und 5 männliche Mäuse; Beobachtungszeit: 14 Tage) nach Gabe einer Dosis von 2 000 mg/kg pro Tier in Methylcellulose-Suspension per Schlundsonde bestimmt: […]

SMILES: O=C(O)c1cc(Cl)ccc1N1CCC2(CC1)OCCO2 [Substanz A, 5-Chlor-2-(1,4-dioxa-8-aza-spiroL4,6/decan-8-yl)-benzoe-säure]
- Tieren gestorben: 0 von 10
